Source: ChEMBL document CHEMBL1909046, “DrugMatrix in vitro pharmacology data”

Experiments:
[1] = DRUGMATRIX: Calcium Channel Type L, Benzothiazepine radioligand binding (ligand: [3H] Diltiazem); format: cell membranes, Rattus norvegicus, Wistar, Brain, Membrane; settings: Not Active = under 50% inhibition at 10 µM
Leukotriene C4 synthase = target: T1, Leukotriene C4 synthase (Cavia porcellus, UniProt A6XA80); format: tissue-based, Lung;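 note: enzyme inhibition assay of leukotriene C4 synthase, using LTA4 as the substrate; in other assays of this panel Not Active means under 50% inhibition at 10 µM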
T1 sequence (A6XA80 whole entry): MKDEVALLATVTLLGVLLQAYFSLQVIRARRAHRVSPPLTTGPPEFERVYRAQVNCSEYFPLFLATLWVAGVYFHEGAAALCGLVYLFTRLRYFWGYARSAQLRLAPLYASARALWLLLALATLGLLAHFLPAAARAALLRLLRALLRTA

[2] = DRUGMATRIX: Phosphodiesterase PDE4 enzyme inhibition (substrate: [3H]cAMP + cAMP); settings: u-937, Not Active = under 50% inhibition at 10 µM
[3] = DRUGMATRIX: Sodium/nucleoside co-transporter radioligand binding (ligand: nitrobenzylthioinosine); format: cell membranes, Cavia porcellus, Dunkin-Hartley, Cerebral cortex, Membrane; settings: Not Active = under 50% inhibition at 10 µM
[4] = DRUGMATRIX: Leukotriene, BLT (LTB4) radioligand binding (ligand: [3H]LTB4); format: cell membranes, Membrane; settings: u-937; Not Active = under 50% inhibition at 10 µM
D(1A) dopamine receptor = D(1A) dopamine receptor (Homo sapiens, UniProt P21728); experiment: DRUGMATRIX: Dopamine D1 radioligand binding (ligand: [3H] SCH-23390); format: cell membranes, CHO, Membrane; settings: Not Active = under 50% inhibition at 10 µM
Chain of D(1A) dopamine receptor (P21728 whole entry): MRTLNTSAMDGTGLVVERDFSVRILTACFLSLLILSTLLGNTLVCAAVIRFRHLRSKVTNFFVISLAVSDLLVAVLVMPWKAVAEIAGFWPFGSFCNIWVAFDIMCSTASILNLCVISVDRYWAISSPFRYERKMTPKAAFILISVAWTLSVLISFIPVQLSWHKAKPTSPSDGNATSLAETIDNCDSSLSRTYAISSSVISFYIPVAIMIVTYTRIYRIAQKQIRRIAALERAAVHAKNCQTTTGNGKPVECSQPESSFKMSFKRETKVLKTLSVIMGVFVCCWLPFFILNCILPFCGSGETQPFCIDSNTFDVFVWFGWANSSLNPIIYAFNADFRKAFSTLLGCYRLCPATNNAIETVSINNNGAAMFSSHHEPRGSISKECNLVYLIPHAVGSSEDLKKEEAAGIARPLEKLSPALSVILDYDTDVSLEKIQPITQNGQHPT

[5] = DRUGMATRIX: Glutamate, Kainate radioligand binding (ligand: [3H] Kainic acid); format: cell membranes, Rattus norvegicus, Wistar, Brain, Membrane; settings: Not Active = under 50% inhibition at 10 µM

| Compound | IC50 [1] | Ki [1] | IC50 (Leukotriene C4 synthase) | IC50 [2] | Ki [2] | IC50 [3] | Ki [3] | IC50 [4] | Ki [4] | IC50 (D(1A) dopamine receptor; cho) | IC50 [5] | Ki [5] | IC50 ([2]; read-out: IC50) [µM] | IC50 (D(1A) dopamine receptor; read-out: IC50) [µM] | Ki (D(1A) dopamine receptor; read-out: Ki) [µM] | IC50 ([1]; read-out: IC50) [µM] | Ki ([1]; read-out: Ki) [µM] |
| --- | --- | --- | --- | --- | --- | --- | --- | --- | --- | --- | --- | --- | --- | --- | --- | --- | --- |
| Nn1nnc2ccccc21 | Not Active | Not Active | Not Active | Not Active | Not Active | Not Active | Not Active | Not Active | Not Active | Not Active | Not Active | Not Active | – | – | – | – | – |
| CC[C@]1(O)CC[C@H]2[C@@H]3CCC4=CCCC[C@@H]4[C@H]3CC[C@@]21C | Not Active | Not Active | Not Active | Not Active | Not Active | Not Active | Not Active | Not Active | Not Active | Not Active | Not Active | Not Active | – | – | – | – | – |
| N[C@@H](Cc1ccc(F)cc1)C(=O)O | Not Active | Not Active | Not Active | Not Active | Not Active | Not Active | Not Active | Not Active | Not Active | Not Active | Not Active | Not Active | – | – | – | – | – |
| CCOC(=O)[C@H](CCc1ccccc1)N[C@@H](C)C(=O)N1Cc2ccccc2C[C@H]1C(=O)O | Not Active | Not Active | Not Active | Not Active | Not Active | Not Active | Not Active | Not Active | Not Active | Not Active | Not Active | Not Active | – | – | – | – | – |
| O=C(c1ccccc1Cl)N1CCC(Cc2ccccc2)CC1 | Not Active | Not Active | Not Active | Not Active | Not Active | Not Active | Not Active | Not Active | Not Active | Not Active | Not Active | Not Active | – | – | – | – | – |
| CCOC(=O)[C@H](CCc1ccccc1)N[C@@H](C)C(=O)N1CCC[C@H]1C(=O)O | Not Active | Not Active | Not Active | Not Active | Not Active | Not Active | Not Active | Not Active | Not Active | Not Active | Not Active | Not Active | – | – | – | – | – |
| Clc1cc2c(cc1Cl)Oc1cc(Cl)c(Cl)cc1O2 [2,3,7,8-TETRACHLORODIBENZO-P-DIOXIN] | Not Active | Not Active | Not Active | Not Active | Not Active | Not Active | Not Active | Not Active | Not Active | Not Active | Not Active | Not Active | – | – | – | – | – |
| C=C1/C(=C\C=C2/CCC[C@]3(C)[C@@H]([C@H](C)CCCC(C)C)CC[C@@H]23)C[C@@H](O)C[C@@H]1O [ALFACALCIDOL] | Not Active | Not Active | Not Active | Not Active | Not Active | Not Active | Not Active | Not Active | Not Active | Not Active | Not Active | Not Active | – | – | – | – | – |
| CCCCCC[C@H]1C(=O)O[C@H](C)[C@H](NC(=O)c2cccc(NC=O)c2O)C(=O)O[C@@H](C)[C@@H]1OC(=O)CC(C)C [ANTIMYCIN A] | Not Active | Not Active | Not Active | Not Active | Not Active | Not Active | Not Active | Not Active | Not Active | Not Active | Not Active | Not Active | – | – | – | – | – |
| C[C@@H]1CC[C@H]2[C@@H](C)C(=O)O[C@@H]3O[C@@]4(C)CC[C@@H]1[C@]32OO4 [ARTEMISININ] | Not Active | Not Active | Not Active | Not Active | Not Active | Not Active | Not Active | Not Active | Not Active | Not Active | Not Active | Not Active | – | – | – | – | – |
| CO[C@H]1[C@@H](O)[C@H](N)[C@@H](O[C@H]2O[C@H]([C@H](C)N)CC[C@H]2N)[C@H](O)[C@@H]1N(C)C(=O)CN [ASTROMICIN] | Not Active | Not Active | Not Active | Not Active | Not Active | Not Active | Not Active | Not Active | Not Active | Not Active | Not Active | Not Active | – | – | – | – | – |
| [N-]=[N+]=CC(=O)OC[C@H](N)C(=O)O [AZASERINE] | Not Active | Not Active | Not Active | Not Active | Not Active | Not Active | Not Active | Not Active | Not Active | Not Active | Not Active | Not Active | – | – | – | – | – |
| CC[C@H]1OC(=O)[C@H](C)[C@@H](O[C@H]2C[C@@](C)(OC)[C@@H](O)[C@H](C)O2)[C@H](C)[C@@H](O[C@@H]2O[C@H](C)C[C@H](N(C)C)[C@H]2O)[C@](C)(O)C[C@@H](C)CN(C)[C@H](C)[C@@H](O)[C@]1(C)O [AZITHROMYCIN] | Not Active | Not Active | Not Active | Not Active | Not Active | Not Active | Not Active | Not Active | Not Active | Not Active | Not Active | Not Active | – | – | – | – | – |
| CC(C)(C)c1ccc(S(=O)(=O)/C=C/C#N)cc1 [BAY-11-7085] | Not Active | Not Active | Not Active | Not Active | Not Active | Not Active | Not Active | Not Active | Not Active | – | Not Active | Not Active | – | – | – | – | – |
| CCc1oc2ccccc2c1C(=O)c1cc(Br)c(O)c(Br)c1 [BENZBROMARONE] | Not Active | Not Active | Not Active | – | – | Not Active | Not Active | Not Active | Not Active | Not Active | Not Active | Not Active | 1.06 | – | – | – | – |
| O=c1cc(-c2ccccc2)oc2ccc3ccccc3c12 [BETA-NAPHTHOFLAVONE] | Not Active | Not Active | Not Active | Not Active | Not Active | Not Active | Not Active | Not Active | Not Active | Not Active | Not Active | Not Active | – | – | – | – | – |
| CC(C)C[C@H]1C(=O)N2CCC[C@H]2[C@]2(O)O[C@](NC(=O)[C@@H]3C=C4c5cccc6[nH]c(Br)c(c56)C[C@H]4N(C)C3)(C(C)C)C(=O)N12 [BROMOCRIPTINE] | Not Active | Not Active | Not Active | Not Active | Not Active | Not Active | Not Active | Not Active | Not Active | – | Not Active | Not Active | – | 2.89 | 1.44 | – | – |
| CS(=O)(=O)OCCCCOS(C)(=O)=O [BUSULFAN] | Not Active | Not Active | Not Active | Not Active | Not Active | Not Active | Not Active | Not Active | Not Active | Not Active | Not Active | Not Active | – | – | – | – | – |
| O=C(/C=C/c1ccc(O)c(O)c1)OCCc1ccccc1 [CAFFEIC ACID PHENETHYL ESTER] | Not Active | Not Active | Not Active | Not Active | Not Active | Not Active | Not Active | Not Active | Not Active | Not Active | Not Active | Not Active | – | – | – | – | – |
| COc1cc(CNC(=O)CCCC/C=C/C(C)C)ccc1O [CAPSAICIN] | Not Active | Not Active | Not Active | Not Active | Not Active | Not Active | Not Active | Not Active | Not Active | Not Active | Not Active | Not Active | – | – | – | – | – |
| NC(=O)N1c2ccccc2C=Cc2ccccc21 [CARBAMAZEPINE] | Not Active | Not Active | Not Active | Not Active | Not Active | Not Active | Not Active | Not Active | Not Active | Not Active | Not Active | Not Active | – | – | – | – | – |
| CCOC(=O)n1ccn(C)c1=S [CARBIMAZOLE] | Not Active | Not Active | Not Active | Not Active | Not Active | Not Active | Not Active | Not Active | Not Active | Not Active | Not Active | Not Active | – | – | – | – | – |
| C#C[C@]1(O)CC[C@H]2[C@@H]3CCC4=Cc5oncc5C[C@]4(C)[C@H]3CC[C@@]21C [DANAZOL] | – | – | Not Active | Not Active | Not Active | Not Active | Not Active | Not Active | Not Active | – | Not Active | Not Active | – | – | – | 14.6 | 13 |
